Entries after “also recorded” stand apart in the source; their conditions may differ. Marks after values point to notes of the source that are not given here.
Experiments:
[1] = system: Pgp C952A control and the five aromatic replacement mutants (Y303A, Y306A, F724A, F728A, F979A); experiment: Effect of BDE-100 on basal and verapamil-stimulated ATPase activity; assay type: biochemical, mouse; settings: BDE-100 at 50, 75 and 100 µM
Experimental: Figure 3 The effect of BDE-100 on the verapamil-stimulated ATPase activity of the six Pgp mutations. […]. The level of BDE-100 inhibition of the verapamil-stimulated ATPase EC50 for each mutant is also shown. P values were determined from a two-tailed unequal variance test: ****, p ≤ 0.0001; ***, p ≤0.0001–0.001; *, p ≤0.05–0.01. […]
(Figure 4) were chosen to yield a more finely sampled dose response for this figure. BDE-100 alone had little effect on Pgp ATPase activity. Inhibitory effects of BDE-100 at 50 µM, 75 µM and 100 µM on the Verapamil-EC50 specific to each mutant were determined. All measurements were determined with seven independent measurements (n=7).
(1 picture or pasted object on this page, not shown here)

Pgp (PDB entry 4xwk) = Pgp (PDB entry 4xwk) (Mus musculus, UniProt P21447); experiment: Authors' own occupancy refinement of the published Pgp-BDE-100 structure; assay type: binding; settings: own refinement using the deposited structure factors
Sequence of Pgp (PDB entry 4xwk) (P21447 whole entry): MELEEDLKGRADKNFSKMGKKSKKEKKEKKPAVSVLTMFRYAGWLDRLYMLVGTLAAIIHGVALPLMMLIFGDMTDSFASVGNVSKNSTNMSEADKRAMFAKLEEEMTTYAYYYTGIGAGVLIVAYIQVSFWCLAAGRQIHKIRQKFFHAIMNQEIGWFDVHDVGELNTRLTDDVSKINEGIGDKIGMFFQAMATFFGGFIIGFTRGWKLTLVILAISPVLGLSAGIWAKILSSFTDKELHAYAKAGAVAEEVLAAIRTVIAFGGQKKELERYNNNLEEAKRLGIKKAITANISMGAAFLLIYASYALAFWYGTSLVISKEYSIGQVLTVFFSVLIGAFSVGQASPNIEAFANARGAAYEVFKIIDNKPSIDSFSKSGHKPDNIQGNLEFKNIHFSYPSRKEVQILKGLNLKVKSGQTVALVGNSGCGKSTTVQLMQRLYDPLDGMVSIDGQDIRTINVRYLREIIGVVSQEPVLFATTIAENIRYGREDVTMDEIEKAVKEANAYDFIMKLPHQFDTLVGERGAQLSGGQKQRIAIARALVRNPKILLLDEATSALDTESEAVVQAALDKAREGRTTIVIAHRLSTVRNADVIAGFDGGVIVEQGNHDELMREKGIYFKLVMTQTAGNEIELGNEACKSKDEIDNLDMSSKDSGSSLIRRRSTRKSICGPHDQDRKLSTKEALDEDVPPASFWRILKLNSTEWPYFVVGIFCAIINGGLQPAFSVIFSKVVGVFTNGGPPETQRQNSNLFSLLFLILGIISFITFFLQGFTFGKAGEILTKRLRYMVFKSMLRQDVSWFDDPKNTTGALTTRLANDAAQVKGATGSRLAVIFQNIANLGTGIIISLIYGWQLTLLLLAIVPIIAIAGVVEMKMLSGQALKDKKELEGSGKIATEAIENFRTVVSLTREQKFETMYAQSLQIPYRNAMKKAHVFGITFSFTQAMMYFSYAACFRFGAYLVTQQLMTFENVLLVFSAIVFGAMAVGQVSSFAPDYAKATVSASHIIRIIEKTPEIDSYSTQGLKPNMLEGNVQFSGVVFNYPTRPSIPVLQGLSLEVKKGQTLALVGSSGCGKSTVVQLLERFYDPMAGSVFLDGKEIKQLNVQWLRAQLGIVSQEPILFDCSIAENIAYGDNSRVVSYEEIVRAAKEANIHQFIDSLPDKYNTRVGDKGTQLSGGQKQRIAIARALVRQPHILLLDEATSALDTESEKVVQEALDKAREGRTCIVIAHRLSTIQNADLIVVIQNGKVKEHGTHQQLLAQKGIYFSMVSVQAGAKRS
Description: X-ray diffraction data were collected at 100 K on beamline 23-ID-D at the Advanced Photon Source (APS). MAD scans were obtained from Pgp–BDE-100 co-crystals near the Br K edge to optimize for the strongest anomalous signal at the beginning of each data-collection session and whenever data were collected from a new mutant. The data were processed, integrated and scaled with HKL-2000 (Otwinowski & Minor, 1997[▸]). The Pgp structures were solved by molecular replacement using the previously solved BDE-100 complex structure (PDB entry 4xwk; Nicklisch et al., 2016[▸]) without the BDE-100 (Table 1 ▸) using an initial rigid-body refinement of the two pseudosymmetric halves of the protein. […] Phenix.elbow was used to produce ligand description dictionaries (Adams et al., 2010[▸]) and the placement of BDE-100 was verified by anomalous scattering of the Br atoms and OMIT density (see Fig. 1 ▸ for top views, Supplementary Fig. S1 for side views and Supplementary Fig. S2 for ligand F o − F c OMIT maps) calculated via CNS (Brünger et al., 1998[▸]). […] All models were subjected to rigid-body, xyz, group B-factor and individual B-factor refinement using phenix.refine (Afonine et al., 2010[▸]) and the model geometry was monitored using MolProbity (Chen et al., 2010[▸]) in the absence of the ligand. […] Figures were prepared and r.m.s.d.s were calculated in PyMOL (version 1.8; Schrödinger). […]

Pgp C952A = target: T1, Pgp C952A (Mus musculus, UniProt P21447, C952A); experiment: Co-crystal structure, occupancy refinement of BDE-100; assay type: binding
T1 construct: 6xHis (C); made in house; host or cells: Pichia pastoris
T1 sequence (P21447 whole entry C952A): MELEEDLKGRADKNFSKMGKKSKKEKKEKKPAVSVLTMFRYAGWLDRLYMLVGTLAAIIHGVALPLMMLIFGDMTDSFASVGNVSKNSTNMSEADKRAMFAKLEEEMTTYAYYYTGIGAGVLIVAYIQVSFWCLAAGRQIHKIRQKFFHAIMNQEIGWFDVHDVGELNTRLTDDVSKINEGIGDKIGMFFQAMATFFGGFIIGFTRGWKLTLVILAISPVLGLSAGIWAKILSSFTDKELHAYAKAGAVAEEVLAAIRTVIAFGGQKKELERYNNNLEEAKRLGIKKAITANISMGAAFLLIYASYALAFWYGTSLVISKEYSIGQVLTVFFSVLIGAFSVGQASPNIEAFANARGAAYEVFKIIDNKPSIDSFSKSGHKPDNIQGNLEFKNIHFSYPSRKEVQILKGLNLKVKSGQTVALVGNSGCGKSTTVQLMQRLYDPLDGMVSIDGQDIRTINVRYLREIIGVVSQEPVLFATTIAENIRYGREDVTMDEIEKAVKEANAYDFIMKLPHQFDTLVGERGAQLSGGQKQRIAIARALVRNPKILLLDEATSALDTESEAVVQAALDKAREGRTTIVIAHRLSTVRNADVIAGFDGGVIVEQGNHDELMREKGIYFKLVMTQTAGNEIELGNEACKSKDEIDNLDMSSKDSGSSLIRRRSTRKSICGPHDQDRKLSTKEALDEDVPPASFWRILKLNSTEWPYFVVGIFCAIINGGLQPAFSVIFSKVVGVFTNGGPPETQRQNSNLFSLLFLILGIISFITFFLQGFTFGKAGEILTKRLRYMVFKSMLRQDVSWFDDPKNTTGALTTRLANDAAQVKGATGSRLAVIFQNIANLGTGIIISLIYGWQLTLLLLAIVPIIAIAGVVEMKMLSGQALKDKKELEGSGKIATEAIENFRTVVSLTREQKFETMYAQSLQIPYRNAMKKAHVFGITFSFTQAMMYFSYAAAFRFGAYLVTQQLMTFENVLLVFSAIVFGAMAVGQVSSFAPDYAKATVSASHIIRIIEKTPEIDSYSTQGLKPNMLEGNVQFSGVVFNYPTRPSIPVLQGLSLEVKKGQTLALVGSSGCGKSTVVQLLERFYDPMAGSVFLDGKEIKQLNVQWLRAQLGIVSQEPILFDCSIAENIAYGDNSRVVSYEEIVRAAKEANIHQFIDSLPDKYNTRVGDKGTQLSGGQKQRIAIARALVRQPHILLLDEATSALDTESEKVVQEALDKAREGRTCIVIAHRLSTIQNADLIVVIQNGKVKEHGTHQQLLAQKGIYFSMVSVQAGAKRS
Experimental: (§1) To reproduce the binding of BDE-100 to Pgp and maintain crystal isomorphism, we utilized the reductive-methylation protocol of Ward et al. (2013[▸]) with some modifications. Fresh dimethylamine–borane (20 mM; Sigma–Aldrich) and 16% formaldehyde (40 mM; Thermo Scientific) were added to 1–3 mg mouse Pgp. The mixture was incubated for 2 h at 4°C and further dimethylamine–borane and formaldehyde were added after 2 h. After incubation for 16 h at 4°C, the reaction was quenched with cold glycine on ice for 2 h and flushed with SEC buffer (10 mM Tris–HCl pH 7.5, 75 mM NaCl, 0.0375% DDM, 0.04% sodium cholate, 0.1 mM TCEP). The eluted protein was concentrated to 2–3 mg ml^−1 and incubated with 0.5 mM BDE-100 (AccuStandard) dissolved in DMSO in the dark for 16 h at 4°C. The precipitate was centrifuged and the extracted sample was […] 1:10 in SEC buffer to give a final concentration of 10–13 mg ml^−1. Crystallization was set up using 3 µl sitting drops in 24-well Cryschem plates (Hampton Research) with a 1:1 ratio of protein solution and reservoir solution [0.1 M HEPES, 50 mM lithium sulfate, 10 mM EDTA, 26–28.5%(w/v) polyethylene glycol (PEG) 600 pH 7.9–8.4]. Crystals could be visualized after ∼3 days at 4°C and reached full size in ∼4 weeks.
(§2) X-ray diffraction data were collected at 100 K on beamline 23-ID-D at the Advanced Photon Source (APS). MAD scans were obtained from Pgp–BDE-100 co-crystals near the Br K edge to optimize for the strongest anomalous signal at the beginning of each data-collection session and whenever data were collected from a new mutant. The data were processed, integrated and scaled with HKL-2000 (Otwinowski & Minor, 1997[▸]). The Pgp structures were solved by molecular replacement using the previously solved BDE-100 complex structure (PDB entry 4xwk; Nicklisch et al., 2016[▸]) without the BDE-100 (Table 1 ▸) using an initial rigid-body refinement of the two pseudosymmetric halves of the protein. Subsequent rounds included the full molecule with chains linked including ligands. Phenix.elbow was used to produce ligand description dictionaries (Adams et al., 2010[▸]) and the placement of BDE-100 was verified by anomalous scattering of the Br atoms and OMIT density (see Fig. 1 ▸ for top views, Supplementary Fig. S1 for side views and Supplementary Fig. S2 for ligand F o − F c OMIT maps) calculated via CNS (Brünger et al., 1998[▸]). The structures agreed with the previously solved structure as our control mutant (C952A) contained BDE-100 in the same position based on experimental data. All models were subjected to rigid-body, xyz, group B-factor and individual B-factor refinement using phenix.refine (Afonine et al., 2010[▸]) and the model geometry was monitored using MolProbity (Chen et al., 2010[▸]) in the absence of the ligand. The BDE-100 atoms were then modeled and the structures were subjected to the same refinement steps including occupancy refinement using an occupancy of 0.5 as the starting point. […] We conclude there is a sufficient data-to-parameter ratio to refine both B factors and occupancy for the BDE-100 ligand in PDB entry 4xwk as well as in all of our structures. Our own refinement of PDB entry 4xwk yielded a ligand occupancy of 0.66 and our control mutant C952A agreed very well, with a refined occupancy of 0.67 (for a full list, see Table 2 ▸). The refined occupancy values for ligands also agreed very well with the intensities of their respective anomalous difference Fourier electron densities. Data statistics and parameters supporting the quality of the structures are presented in Table 1 ▸ and Supplementary Table S1. Figures were prepared and r.m.s.d.s were calculated in PyMOL (version 1.8; Schrödinger). […]

Pgp C952A/Y306A = target: T2, Pgp C952A/Y306A (Mus musculus, UniProt P21447, C952A/Y306A); experiment: as above; assay type: binding
T2 construct: 6xHis (C); made in house; host or cells: Pichia pastoris
Experimental: as §1, §2

Pgp C952A/F979A = target: T3, Pgp C952A/F979A (Mus musculus, UniProt P21447, C952A/F979A); experiment: as above; assay type: binding
T3 construct: 6xHis (C); made in house; host or cells: Pichia pastoris
Experimental: as §1, §2

Pgp C952A/F724A = target: T4, Pgp C952A/F724A (Mus musculus, UniProt P21447, C952A/F724A); experiment: as above; assay type: binding
T4 construct: 6xHis (C); made in house; host or cells: Pichia pastoris
Experimental: as §1, §2

Pgp C952A/Y303A = target: T5, Pgp C952A/Y303A (Mus musculus, UniProt P21447, C952A/Y303A); experiment: as above; assay type: binding
T5 construct: 6xHis (C); made in house; host or cells: Pichia pastoris
T5 sequence (P21447 whole entry Y303A/C952A): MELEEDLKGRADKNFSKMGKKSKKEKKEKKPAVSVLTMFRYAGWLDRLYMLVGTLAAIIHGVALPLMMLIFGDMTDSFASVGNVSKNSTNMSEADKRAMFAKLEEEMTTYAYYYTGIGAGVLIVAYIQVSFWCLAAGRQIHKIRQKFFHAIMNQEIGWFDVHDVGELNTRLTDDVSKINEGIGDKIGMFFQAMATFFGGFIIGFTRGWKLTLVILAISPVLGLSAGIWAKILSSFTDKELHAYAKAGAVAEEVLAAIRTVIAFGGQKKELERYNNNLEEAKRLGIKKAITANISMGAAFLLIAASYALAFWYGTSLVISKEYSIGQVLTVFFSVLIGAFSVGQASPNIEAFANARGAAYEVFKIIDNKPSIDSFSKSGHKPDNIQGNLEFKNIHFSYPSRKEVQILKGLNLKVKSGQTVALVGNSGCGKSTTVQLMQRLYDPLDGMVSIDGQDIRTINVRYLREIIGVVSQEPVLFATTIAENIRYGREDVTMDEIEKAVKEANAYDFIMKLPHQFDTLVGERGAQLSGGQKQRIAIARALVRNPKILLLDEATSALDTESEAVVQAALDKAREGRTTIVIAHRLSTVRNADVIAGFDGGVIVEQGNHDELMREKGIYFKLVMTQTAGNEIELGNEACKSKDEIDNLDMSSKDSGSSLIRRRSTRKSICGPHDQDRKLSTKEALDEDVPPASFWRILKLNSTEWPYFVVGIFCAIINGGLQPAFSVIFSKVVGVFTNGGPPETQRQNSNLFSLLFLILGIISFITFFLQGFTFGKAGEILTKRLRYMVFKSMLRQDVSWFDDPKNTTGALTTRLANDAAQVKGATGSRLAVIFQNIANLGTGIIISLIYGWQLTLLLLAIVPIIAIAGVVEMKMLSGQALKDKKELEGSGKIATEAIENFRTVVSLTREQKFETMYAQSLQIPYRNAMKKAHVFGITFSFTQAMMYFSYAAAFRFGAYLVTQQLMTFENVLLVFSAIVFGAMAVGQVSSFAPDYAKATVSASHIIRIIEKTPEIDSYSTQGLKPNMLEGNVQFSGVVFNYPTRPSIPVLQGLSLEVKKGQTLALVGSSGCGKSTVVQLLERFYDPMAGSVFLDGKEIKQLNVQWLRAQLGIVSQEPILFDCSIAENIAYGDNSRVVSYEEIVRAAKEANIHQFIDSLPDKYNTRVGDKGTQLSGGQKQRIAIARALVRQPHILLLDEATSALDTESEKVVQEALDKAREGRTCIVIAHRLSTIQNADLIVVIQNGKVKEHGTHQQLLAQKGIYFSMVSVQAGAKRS
Experimental: as §1, §2

Pgp C952A/F728A = target: T6, Pgp C952A/F728A (Mus musculus, UniProt P21447, C952A/F728A); experiment: as above; assay type: binding
T6 construct: 6xHis (C); made in house; host or cells: Pichia pastoris
T6 sequence (P21447 whole entry F728A/C952A): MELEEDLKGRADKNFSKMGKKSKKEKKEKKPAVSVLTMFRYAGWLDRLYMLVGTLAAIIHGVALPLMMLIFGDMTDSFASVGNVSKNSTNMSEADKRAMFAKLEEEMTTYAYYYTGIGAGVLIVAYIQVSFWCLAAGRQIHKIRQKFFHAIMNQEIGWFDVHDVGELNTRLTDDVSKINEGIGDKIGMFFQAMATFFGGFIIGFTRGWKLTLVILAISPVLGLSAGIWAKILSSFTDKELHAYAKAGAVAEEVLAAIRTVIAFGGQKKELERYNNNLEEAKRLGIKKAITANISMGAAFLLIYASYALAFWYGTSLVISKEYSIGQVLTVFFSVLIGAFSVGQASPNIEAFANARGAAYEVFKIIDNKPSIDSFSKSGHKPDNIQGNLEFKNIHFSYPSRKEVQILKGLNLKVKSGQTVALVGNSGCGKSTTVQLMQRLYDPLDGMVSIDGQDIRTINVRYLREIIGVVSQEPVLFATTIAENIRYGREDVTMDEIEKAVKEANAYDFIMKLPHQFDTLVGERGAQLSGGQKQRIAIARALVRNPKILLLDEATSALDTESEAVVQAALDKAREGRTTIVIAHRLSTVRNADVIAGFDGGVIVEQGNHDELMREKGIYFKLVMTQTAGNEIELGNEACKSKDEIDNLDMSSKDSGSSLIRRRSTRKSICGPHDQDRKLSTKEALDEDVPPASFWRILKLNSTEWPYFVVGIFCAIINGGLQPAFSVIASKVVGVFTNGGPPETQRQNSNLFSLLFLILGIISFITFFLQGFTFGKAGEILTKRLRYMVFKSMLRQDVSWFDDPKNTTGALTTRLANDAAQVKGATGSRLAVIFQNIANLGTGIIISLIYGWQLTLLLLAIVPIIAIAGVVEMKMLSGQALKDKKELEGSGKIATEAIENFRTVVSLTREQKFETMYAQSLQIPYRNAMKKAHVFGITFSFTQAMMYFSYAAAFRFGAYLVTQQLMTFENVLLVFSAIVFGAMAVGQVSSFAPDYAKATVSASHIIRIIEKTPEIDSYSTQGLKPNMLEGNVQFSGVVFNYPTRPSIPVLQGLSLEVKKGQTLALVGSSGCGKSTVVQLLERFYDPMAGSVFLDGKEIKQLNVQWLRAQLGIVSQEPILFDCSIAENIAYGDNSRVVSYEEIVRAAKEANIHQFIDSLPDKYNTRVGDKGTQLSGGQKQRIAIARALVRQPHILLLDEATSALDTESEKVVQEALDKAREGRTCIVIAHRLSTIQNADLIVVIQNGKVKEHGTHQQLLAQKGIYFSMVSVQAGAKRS
Experimental: as §1, §2

wild-type Pgp = system: wild-type Pgp; design: method as in Nicklisch et al., 2016; settings: ref Nicklisch et al., 2016, cited from earlier work

Brc1ccc(Oc2c(Br)cc(Br)cc2Br)c(Br)c1 [BDE-100]
Effect of BDE-100 alone on basal ATPase activity ([1]; absence of verapamil, C952A control and five mutants): did not increase the basal ATPase activity; also recorded: little effect
Effect of BDE-100 on verapamil-stimulated ATPase activity ([1]; at the verapamil EC50 determined for each mutant): inhibited; also recorded: significant inhibitory effect
Occupancy of BDE-100, site 1 (Pgp (PDB entry 4xwk)): 66%
Refined ligand occupancy, site 1 (Pgp (PDB entry 4xwk); as fraction): 0.66
Occupancy of BDE-100, site 1 (Pgp C952A; C952A): 67%
Refined ligand occupancy, site 1 (Pgp C952A; C952A control, as fraction): 0.67
Occupancy of BDE-100, site 1 (Pgp C952A/Y306A): 68%
Occupancy of BDE-100, site 2 (Pgp C952A/Y306A): 49%
Occupancy of BDE-100, site 1 (Pgp C952A/F979A): 65%
Occupancy of BDE-100, site 3 (Pgp C952A/F724A): 35%
Occupancy of BDE-100, site 1 (Pgp C952A/Y303A): 64%
Occupancy of BDE-100, site 2 (Pgp C952A/Y303A): 56%
Occupancy of BDE-100, site 1 (designated site 1A) (Pgp C952A/F728A): 53 ^† %
Occupancy of BDE-100, site 2 (Pgp C952A/F728A): 48%
Inhibition of verapamil-stimulated ATPase activity (wild-type Pgp): potent inhibitor
Effect of BDE-100 alone on basal ATPase activity (wild-type Pgp; wild-type Pgp): did not increase the basal ATPase activity

— paper PMC7340268, “Structural definition of polyspecific compensatory ligand recognition by P-glycoprotein” (IUCrJ, 2020)
